This is an account of results in patent EP0043274A2, “Antithrombotic treatment” (priority 1980, dated 1982).

Read-outs that look alike come from different tables or passages of the source.

Assay [1] relates to rat plasma. The assay can be described thus: Blood coagulation tests (PT, PTT, coagulation factors) in vitro. The format is biochemical. To be noted: rat plasma in vitro, 0.5 mg/ml. The text has this:
(§1) The alkali metalbisulfites, sodium and potassium, and ammonium bisulfite are found to prolong PT and PTT in a dose-related fashion.

Assay [2] relates to rabbit plasma. Described as above. The conditions noted are these: rabbit plasma in vitro, 0.5 mg/ml. Type of assay: biochemical.
Excerpt: as §1
The Solution I is found to prolong PT and PTT in a dose related fashion. […] The agent is active in inhibiting various coagulation factors, including factors VII, IX, X, XI, and XII.

In assay [3] the test system is human plasma. Type of assay: biochemical. The conditions noted are these: for PTT (effect in words): in vitro.
The subject of assay [4] is human plasma. The format is biochemical. To be noted: for PT (effect in words): in vitro.
Assay [5] has as its system thrombus formation in the jugular vein. Briefly: I 125 fibrinogen technique, damaged jugular vein (venous thrombosis), continuous infusion. Type of assay: in vivo, rabbits. The conditions noted are these: for thrombus formation in the jugular vein (conclusion in words): continuous infusion for five hours. The procedure:
The anti venous thrombotic effect of sodium bisulfite is evaluated in rabbits by using I ^125 fibrinogen technique as described in an article in "Archives of Surgery" Vol. 104, pg. 152 (1972).
The rabbit was continuously infused with aqueous sodium bisulfite solution at the rate of […]. (5.154 gram per hour) (animal body weight 2.3 kg) for a time of five hours. After 5 hours, the animal was sacrificed and the radioactive fibrinogen accumulated in the damaged jugular vein was determined. The radioactivity on the contra-lateral (undamaged) jugular vein was also determined to serve as a control. Concurrently, another rabbit had experienced the same procedure but received only a standard sodium chloride solution as a control. The rabbit from the normal saline solution has seven times as much radioactivity as his counterpart infused with sodium bisulfite.
Two jugular veins on a normal, healthy rabbit are exposed and one of the veins is systematically damaged by clamping in two longitudinally spaced places. The rabbit is then continuously infused with aqueous sodium formaldehyde bisulfite at the rate of […] (5.154 gram per hour) (animal body weight 2.3 kg). The rabbit is then injected with fibrinogen labeled with I^125. After 5 hours, the damaged jugular vein is evaluated for radioacive count with a Geiger counter.
This iodine 125 evaluation technique is described by Kakkar in Archieves of Surgery, Vol. 104, pg. 152 (1972) and by Kelton, J.G. et al, Journal of Clinical Investigation, Vol. 62, pgs. 892-895, (1978). […] Other rabbits, similarly evaluated, died, apparently because of overdose by the infustion technique.

Assay [6] relates to platelet rich plasma. The assay can be described thus: Platelet aggregation in platelet rich plasma, ADP stimulus (Example 25). The format is cell-based. To be noted: plasma first treated with the compound. The text has this: Plasma was centrifuged at 1000 r.p.m. (200 g) to prepare a platelet rich plasma. Using adosine diphosphate (ADP) as a stimulous, rapid aggregation of platelets in the plasma was efected. On the other hand, when such plasma is first treatd with (a) tetramethyl ammonium sulfite, (b) tetramethyl ammonium bisulfite, and then (c) tetrabutyl

The target in assay [7] is T1, F IX (Homo sapiens, UniProt P00740).
T1 construct: from tissue; host or cells: human plasma
The assay can be described thus: Coagulation factor assay (Biggs): Factor IX. Type of assay: biochemical. To be noted: single experiment; control 50. The procedure: (§2) The effect of U.S.P. grade sodium bisulfite on blood coagulation factors is evaluated by standard procedures (Biggs) and the results are shown in Table III below.
(§3) References for PT, PTT, and assays of all the coagulation factors can be found in a standard textbook, entitled "Human Blood Coagulation, Haemostasis and Thrombosis", edited by Rosemary Biggs, published by Blackwell Scientific Publications, Oxford, England (2nd edition), pages 670-705, 1976.

Assay [8] deals with T2, FIBRINOGEN (Homo sapiens, UniProt P02671+P02675+P02679).
T2 construct: from tissue; host or cells: human plasma
T2 sequence (P02671 20-629 limits assumed): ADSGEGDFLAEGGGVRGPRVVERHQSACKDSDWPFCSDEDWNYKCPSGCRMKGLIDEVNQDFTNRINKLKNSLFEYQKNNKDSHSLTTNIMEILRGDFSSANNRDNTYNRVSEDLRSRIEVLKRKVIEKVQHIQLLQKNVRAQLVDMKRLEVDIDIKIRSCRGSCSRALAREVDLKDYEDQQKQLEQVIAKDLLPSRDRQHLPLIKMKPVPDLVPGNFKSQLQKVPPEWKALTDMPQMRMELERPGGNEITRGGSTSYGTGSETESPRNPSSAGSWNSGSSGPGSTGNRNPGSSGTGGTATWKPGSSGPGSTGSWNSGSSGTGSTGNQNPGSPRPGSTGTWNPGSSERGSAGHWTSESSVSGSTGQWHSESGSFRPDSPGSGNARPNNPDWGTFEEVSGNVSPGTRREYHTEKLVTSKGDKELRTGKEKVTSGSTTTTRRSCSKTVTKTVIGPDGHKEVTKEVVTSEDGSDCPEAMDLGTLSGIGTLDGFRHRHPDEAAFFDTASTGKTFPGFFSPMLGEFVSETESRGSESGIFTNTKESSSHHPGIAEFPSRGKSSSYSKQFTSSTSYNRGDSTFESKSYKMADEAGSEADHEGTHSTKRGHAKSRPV
T2 sequence (P02675 31-491): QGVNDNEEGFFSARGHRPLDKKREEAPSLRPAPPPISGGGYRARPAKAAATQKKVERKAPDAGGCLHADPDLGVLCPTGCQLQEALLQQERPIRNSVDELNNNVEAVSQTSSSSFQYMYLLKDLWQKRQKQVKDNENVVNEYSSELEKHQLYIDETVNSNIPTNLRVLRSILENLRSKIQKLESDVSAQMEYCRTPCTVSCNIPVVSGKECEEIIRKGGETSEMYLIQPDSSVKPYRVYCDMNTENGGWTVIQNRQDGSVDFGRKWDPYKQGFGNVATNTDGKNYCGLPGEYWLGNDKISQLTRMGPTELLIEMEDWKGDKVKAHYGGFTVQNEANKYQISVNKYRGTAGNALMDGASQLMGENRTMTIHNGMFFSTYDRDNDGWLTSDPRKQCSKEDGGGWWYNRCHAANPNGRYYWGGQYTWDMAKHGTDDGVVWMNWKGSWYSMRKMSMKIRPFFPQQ
T2 sequence (P02679 27-453): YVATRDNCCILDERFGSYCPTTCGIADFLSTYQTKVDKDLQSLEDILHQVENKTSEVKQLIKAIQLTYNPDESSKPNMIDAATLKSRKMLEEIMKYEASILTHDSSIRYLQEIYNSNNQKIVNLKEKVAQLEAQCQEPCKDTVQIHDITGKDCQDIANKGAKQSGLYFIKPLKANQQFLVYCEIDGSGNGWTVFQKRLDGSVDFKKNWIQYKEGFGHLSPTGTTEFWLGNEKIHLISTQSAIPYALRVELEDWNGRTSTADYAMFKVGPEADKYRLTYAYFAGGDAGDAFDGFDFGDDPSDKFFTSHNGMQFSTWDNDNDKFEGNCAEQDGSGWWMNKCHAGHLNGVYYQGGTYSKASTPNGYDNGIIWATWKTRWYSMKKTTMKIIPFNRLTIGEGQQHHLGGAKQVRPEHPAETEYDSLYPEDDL
Briefly: Coagulation factor assay (Biggs): fibrinogen. The format is biochemical. The conditions noted are these: mean of 2 experiments; control 205.

For assay [9], the target named is T2, FIBRINOGEN
Briefly: Coagulation factor assay (Biggs): fibrinogen. Type of assay: biochemical. To be noted: mean of two experiments; control 205. The protocol:
as §2, §3

Setting [10] is: amine bisulfites, control plasma 12.8 / 13.1.
The mark [11] stands for this setting: 0.5 mg/ml, two different days, control 42.6 / 42.10.

T1 sequence (P00740 47-461): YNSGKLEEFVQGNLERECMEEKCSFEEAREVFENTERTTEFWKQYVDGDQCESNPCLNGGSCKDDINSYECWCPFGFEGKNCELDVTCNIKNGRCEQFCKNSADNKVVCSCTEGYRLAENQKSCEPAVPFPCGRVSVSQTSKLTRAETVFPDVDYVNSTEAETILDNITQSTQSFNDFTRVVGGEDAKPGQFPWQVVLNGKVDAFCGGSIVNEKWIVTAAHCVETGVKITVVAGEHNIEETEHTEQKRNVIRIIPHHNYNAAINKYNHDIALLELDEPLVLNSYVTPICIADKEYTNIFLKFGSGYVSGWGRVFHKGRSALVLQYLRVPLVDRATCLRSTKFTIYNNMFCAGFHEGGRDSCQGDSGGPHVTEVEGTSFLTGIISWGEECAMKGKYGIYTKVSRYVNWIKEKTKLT

Take potassium bisulfite: the “PT and PTT (effect in words)” value in assay [1] and in assay [2] was “significantly prolong” throughout. Besides, in assay [3] (0.5 mg/ml), the “PTT (effect in words)” value was “significantly prolong”. Also, in assay [4] (0.5 mg/ml), the “PT (effect in words)” value is on record as “significantly prolong”.
Turning to ammonium bisulfite, the “PT and PTT (effect in words)” value in assay [1] and in [2] was “significantly prolong” throughout. Further, in assay [3] (0.5 mg/ml), the “PTT (effect in words)” value is recorded as “significantly prolong”. Also, the “PT (effect in words)” value in [4] (0.5 mg/ml) is recorded as “significantly prolong”.
As for `OCCNCCO` [DIETHANOL AMINE], in assay [3], the “PTT REPLICATIONS 2” value was 58.0. The “PTT REPLICATIONS 1” value in assay [3] (amine bisulfites, control plasma 37.5 / 38.2) was determined as 62.6. Further, the “PTT REPLICATIONS 3” value in [3] (amine bisulfites, control plasma 37.8 / 39.2) stood at 60.6. Besides, in assay [4] (setting [10]), the “PT REPLICATIONS 1” value amounted to 20.6 and the “PT REPLICATIONS 2” value is on record as 19.8. Also, the “PT REPLICATIONS 3” value in [4] (amine bisulfites, control plasma 13.1 / 13.0) is reported as 19.7. The “thrombus formation in the jugular vein (conclusion in words)” value (“thrombus formation in the jugular vein” for short) in assay [5] is on record as “definite positive antithrombotic effect”.
As for `CCCCN(CCCC)CCCC.O=S(O)O` [tri-n-butyl amine bisulfite], the “thrombus formation in the jugular vein” value in assay [5] is “definite positive antithrombotic effect”.
For the compound `C[N+](C)(C)C` [Tetramethyl-ammonium sulfite], the “platelet aggregation, adosine diphosphate (ADP) as a stimulous” value in [6] is on record as “inhibited”. In addition, the “Factor IX (%)” value in assay [7] is reported as 20%. For the same compound, the “Fibrinogen (%)” value in assay [8] is on record as 175%.
With `CCCCCCCCN.O=S(O)O` [n-octyl amine bisulfite], in assay [5], the “thrombus formation in the jugular vein” value is “definite positive antithrombotic effect”.
On to `CCN(CC)CC.O=S(O)O` [TRIETHYL AMINE SULFITE, triethyl amine sulfite], for which, in assay [9], the “Fibrinogen (%)” value was 170%. Also, in assay [3], the “MEAN LSD (PTT)” value was found to be 60.6 ± 4.1 s, the “PTT(Sec) […]. 1” value is 59.2 s, the “PTT(Sec) […]. 2” value amounted to 65.1 s and the “PTT(Sec) […]. 3” value was found to be 54.9 s. Also, in assay [3], the “PTT(Sec) […]. 4” value was determined as 59.0 s and the “PTT(Sec) […].5” value worked out at 64.0 s. Also, in assay [4], the “MEAN LSD (PT)” value was 16.9 ± 1.1 s, the “PT(Sec) […]. 1” value is 17.0 s, the “PT(Sec) […]. 2” value was 18.5 s and the “PT(Sec) […]. 3” value stood at 15.4 s. Also, in assay [4], the “PT(Sec) […]. 4” value came to 16.6 s and the “PT(Sec) […].5” value was 16.8 s. The “thrombus formation in the jugular vein” value in [5] is “definite positive antithrombotic effect”.
Ammonium Sulfite: the “PTT(seconds) Exp. 1 A” value in [3] was determined as 56.5 s. Further, the “PTT” value in assay [3] (setting [11]) was 58.80 s. Also, the “PTT(seconds) Exp. 2 A” value in assay [3] (Active Agent 0.5/ml, test sequences A and B, control 50.5 (A), 44.5 (B)) was found to be 65.2 s. For the same compound, in assay [4], the “PT” value is 16.08 s, the “PT(seconds) Exp. 1 A” value turned out to be 14.7 s and the “PT(seconds) Exp. 2 A” value was determined as 16.9 s.
For Na-hydrosulfite [reference compound], in assay [3] (setting [11]), the “PTT sec” value is reported as 45.2 (39.0) sec. In addition, in [4] (0.5 mg/ml, two different days, control 13.40), the “PT” value amounted to 14.4 s.
For `CCCC[N+](CCCC)(CCCC)CCCC` [tetrabutyl ammonium bisulfite], the “radioactivity (I 125 fibrinogen) in damaged jugular vein of saline control rabbit relative to treated rabbit” value in assay [5] (continuous infusion .001 mg/kg min (5.154 gram per hour) for five hours) was “approximately 7 times”.
